These are literature values, as cited in US20060040940A1, “Imidazopyridines pyrimidines and triazines for enhancing cognition as gaba-a-alphas 5 receoptor subtype ligands” (priority 2001, published 2006).

The subject of data set [1] is benzodiazepine receptor. Particulars: reported in Psychobiology, 21:101-108.
Data set [2] relates to benzodiazepine receptor. As to conditions: background statement.

Each structure is given as a SMILES string.

Consider `COC(=O)c1cc2c(cn1)[nH]c1ccccc12` [β-CCM], for which, in data set [1], the “spatial learning in the Morris watermaze” value was “enhanced spatial learning”. The proconvulsant effect result in data set [2] is given as “proconvulsant”.
